According to patent US8183252B2, “Heterocyclic aspartyl protease inhibitors” (Schering Corporation, priority 2007, dated 2012):

What follows are molecules tested against T1, human liver Cathepsin D (Homo sapiens, UniProt P07339) (assay: Human Cathepsin D FRET Assay). Conditions: Ki interpolated from IC50 using Km 4 uM and substrate 2.5 uM; read-out: hCathD Ki.
T1 construct: Purified (>95%) human liver Cathepsin D; purchased Athens Research & Technology 16-12-030104; host or cells: human liver (tissue-derived)
T1 sequence (P07339 65-161 limits assumed): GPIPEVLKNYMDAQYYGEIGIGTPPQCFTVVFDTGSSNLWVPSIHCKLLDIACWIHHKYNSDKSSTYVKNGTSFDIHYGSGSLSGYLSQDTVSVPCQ
T1 sequence (P07339 169-412 limits assumed): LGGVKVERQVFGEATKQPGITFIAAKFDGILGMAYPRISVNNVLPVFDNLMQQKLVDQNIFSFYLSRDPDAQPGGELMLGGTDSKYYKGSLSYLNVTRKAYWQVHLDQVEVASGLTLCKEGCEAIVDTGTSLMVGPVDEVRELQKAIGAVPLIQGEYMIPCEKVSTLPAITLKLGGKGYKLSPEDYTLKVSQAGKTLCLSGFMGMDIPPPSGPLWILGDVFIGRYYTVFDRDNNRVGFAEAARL
Type: biochemical
Protocol: This assay can be run in either continuous or endpoint format. […] Substrate and enzyme are commercially available.
The assay is run in a 30 ul final volume using a 384 well Nunc black plate. 8 concentrations of compound are pre-incubated with enzyme for 30 mins at 37 C followed by addition of substrate with continued incubation at 37 C for 45 mins. The rate of increase in fluorescence is linear for over 1 h and is measured at the end of the incubation period using a Molecular Devices FLEX station plate reader.
Compound is diluted to 3× final concentration in assay buffer containing 3% DMSO. […] 10 ul of substrate is added to each well mixed and spun briefly to initiate the reaction.
`N=C1N[C@](CCC2CCCCC2)(CC2CCCCC2)C(=O)N1Cc1ccc(Cl)cc1Cl` [drawing 4522] showed a Ki of 0.45 nM.

Same assay, conditions: compounds listed as exhibiting hCathD Ki under 75 nM; Ki interpolated from IC50, Km 4 uM, substrate 2.5 uM
For `N=C1N[C@](CCC2CCCCC2)(CC2CCCCC2)C(=O)N1Cc1cccc([N+](=O)[O-])c1`, the Ki was under 75 nM. In the case of `CC(C)C[C@H](CO)N1C(=N)N[C@](CCC2CCCCC2)(CC2CCCCC2)C1=O`, the Ki is reported as under 75 nM. `CCC[C@H]1CN(Cc2ccc(CC3C(=N)N[C@](CCC4CCCCC4)(CC4CCCCC4)C3=O)cc2)C(=O)N1` (stereo partly shown) was tested, and the Ki was under 75 nM. For `N=C1N[C@](CCC2CCCCC2)(CC2CCCCC2)C(=O)N1Cc1ccc([N+](=O)[O-])cc1`, the Ki was under 75 nM. In the case of `Cc1ccccc1CN1C(=N)N[C@](CCC2CCCCC2)(CC2CCCCC2)C1=O`, the Ki is reported as under 75 nM. In the case of `N=C1N[C@](CCC2CCCCC2)(CC2CCCCC2)C(=O)N1Cc1ccc(F)cc1Cl`, the Ki is reported as under 75 nM. `CCCCc1cccc(C2(CCCC)NC(=N)N(CC3CCN(C(=O)COc4ccccc4)CC3)C2=O)c1` (stereo not shown) was tested, and the Ki was under 75 nM. With `CCCCC1(c2cccc(Br)c2)NC(=N)N(CC2CCN(C(=O)COc3ccccc3)CC2)C1=O` (stereo not shown) the Ki was under 75 nM. In the case of `CCCCOC1CCCC(C[C@@]2(CCC3CCCCC3)NC(=N)N(C)C2=O)C1` (stereo partly shown), the Ki is reported as under 75 nM. `C[C@@H](C1CCCCC1)N1C(=N)N[C@](CCC2CCCCC2)(CC2CCCCC2)C1=O` gave a Ki of under 75 nM. With `CCCCNC(=O)NCc1ccc(CN2C(=N)NC(CCC3CCCCC3)(CC3CCCCC3)C2=O)cc1` (stereo not shown) the Ki was under 75 nM. In the case of `N=C1N[C@](CCC2CCCCC2)(CC2CCCCC2)C(=O)N1CCC(c1ccccc1)c1ccccc1`, the Ki is reported as under 75 nM. Work on `CCCCNC(=O)NCc1ccc(CN2C(=N)NC(CCC3CCCCC3)(CC3CCCCC3)CC2=O)cc1` (stereo not shown) yielded a Ki of under 75 nM. Work on `N=C1NC(CCC2CCCCC2)(CC2CCCCC2)C(=O)N1CC1CCN(C(=O)COc2ccccc2)CC1` (stereo not shown) yielded a Ki of under 75 nM. `N=C1NC(CCC2CCCCC2)(c2cccc(Br)c2)C(=O)N1CC1CCN(C(=O)COc2ccccc2)CC1` (stereo not shown) showed a Ki of under 75 nM. For `N=C1N[C@](CCC2CCCCC2)(CC2CCCCC2)C(=O)N1Cc1ccc(F)cc1`, the Ki was under 75 nM. `N=C1N[C@](CCC2CCCCC2)(CC2CCCCC2)C(=O)N1Cc1ccc(Cl)cc1Cl` [drawing 4505] gave a Ki of under 75 nM.

The molecules below were run against T2, human BACE1 (sproBACE1) (Homo sapiens, UniProt P56817) (assay: BACE-1 Peptide Hydrolysis Assay (HTRF)). Conditions: read-out: BACE-1 Ki.
T2 construct: sBACE1, corresponding to amino acids 1-454; made in house; host or cells: Sf9 insect cells (baculovirus), secreted into the medium
T2 sequence (P56817 22-454): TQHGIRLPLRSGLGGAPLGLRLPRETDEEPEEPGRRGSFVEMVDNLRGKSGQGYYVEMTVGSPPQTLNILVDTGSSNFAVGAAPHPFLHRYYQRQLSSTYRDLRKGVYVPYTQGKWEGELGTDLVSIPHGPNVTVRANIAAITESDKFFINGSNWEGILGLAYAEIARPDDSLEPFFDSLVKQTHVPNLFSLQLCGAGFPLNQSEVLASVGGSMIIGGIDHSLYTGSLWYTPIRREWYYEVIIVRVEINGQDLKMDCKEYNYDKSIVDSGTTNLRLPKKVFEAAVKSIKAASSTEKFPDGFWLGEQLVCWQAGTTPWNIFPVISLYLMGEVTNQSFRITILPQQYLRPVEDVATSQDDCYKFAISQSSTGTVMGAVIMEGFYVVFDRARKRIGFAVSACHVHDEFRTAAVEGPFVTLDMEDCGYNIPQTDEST
Type: biochemical
Summary of the method: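 Secreted sBACE1-myc/His from baculovirus-infected sf9 cells, purified on Q-sepharose then Ni-NTA. Substrate-initiated reactions ran 3 hr at 30° C., then were stopped with KF buffer (pH 8.0) containing SA-XL665 for HTRF read-out. EC50 was fitted by sigmoidal dose-response to percent change in ratio.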
For `CN1C(=N)NC(C)(c2cccc(-c3cc(Cl)ccc3CNS(=O)(=O)c3ccccc3)c2)C1=O` (stereo not shown) [benzenesulfonamide, N-[[5-chloro-3′-(2-imino-1,4-dimethyl-5-oxo-4-imidazolidinyl)[1,1′-biphenyl]-2-yl]methyl]-], the Ki was under 5000 nM. `CCS(=O)(=O)Nc1ccc(CN2C(=N)NC(c3ccccc3)(c3ccccc3)C2=O)cc1` [ethanesulfonamide, N-[4-[(2-imino-5-oxo-4,4-diphenyl-1-imidazolidinyl)methyl]phenyl]-] showed a Ki of under 5000 nM. Molecule `CCCCS(=O)(=O)N1CCC(CN2C(=N)NC(c3ccccc3)(c3ccccc3)C2=O)CC1` [piperidine, 1-(butylsulfonyl)-4-[(2-imino-5-oxo-4,4-diphenyl-1-imidazolidinyl)methyl]-] has a Ki of under 5000 nM. `CCS(=O)(=O)N1CCC(CN2C(=N)NC(c3ccccc3)(c3ccccc3)C2=O)CC1` [piperidine, 1-(ethylsulfonyl)-4-[(2-imino-5-oxo-4,4-diphenyl-1-imidazolidinyl)methyl]-] showed a Ki of under 5000 nM. Molecule `N=C1NC(c2ccccc2)(c2ccccc2)C(=O)N1CC1CCN(S(=O)(=O)c2ccc(F)c(Cl)c2)CC1` [piperidine, 1-[(3-chloro-4-fluorophenyl)sulfonyl]-4-[(2-imino-5-oxo-4,4-diphenyl-1-imidazolidinyl)methyl]-] has a Ki of under 5000 nM. With `N=C1NC(c2ccccc2)(c2ccccc2)C(=O)N1CC1CCN(S(=O)(=O)c2ccc3ccccc3c2)CC1` [piperidine, 4-[(2-imino-5-oxo-4,4-diphenyl-1-imidazolidinyl)methyl]-1-(2-naphthalenylsulfonyl)-] the Ki was under 5000 nM. Work on `CS(=O)(=O)N1CCC(CN2C(=N)NC(c3ccccc3)(c3ccccc3)C2=O)CC1` [piperidine, 4-[(2-imino-5-oxo-4,4-diphenyl-1-imidazolidinyl)methyl]-1-(methylsulfonyl)-] yielded a Ki of under 5000 nM. `N=C1NC(c2ccccc2)(c2ccccc2)C(=O)N1CC1CCN(S(=O)(=O)c2ccccc2)CC1` [piperidine, 4-[(2-imino-5-oxo-4,4-diphenyl-1-imidazolidinyl)methyl]-1-(phenylsulfonyl)-] showed a Ki of under 5000 nM. Molecule `CCCS(=O)(=O)N1CCC(CN2C(=N)NC(c3ccccc3)(c3ccccc3)C2=O)CC1` [piperidine, 4-[(2-imino-5-oxo-4,4-diphenyl-1-imidazolidinyl)methyl]-1-(propylsulfonyl)-] has a Ki of under 5000 nM. In the case of `COc1ccc(S(=O)(=O)N2CCC(CN3C(=N)NC(c4ccccc4)(c4ccccc4)C3=O)CC2)cc1` [piperidine, 4-[(2-imino-5-oxo-4,4-diphenyl-1-imidazolidinyl)methyl]-1-[(4-methoxyphenyl)sulfonyl]-], the Ki is reported as under 5000 nM. For `N=C1NC(c2ccccc2)(c2ccccc2)C(=O)N1CC1CCN(S(=O)(=O)c2ccc(OC(F)(F)F)cc2)CC1` [piperidine, 4-[(2-imino-5-oxo-4,4-diphenyl-1-imidazolidinyl)methyl]-1-[[4-(trifluoromethoxy)phenyl]sulfonyl]-], the Ki was under 5000 nM. `CN1C(=N)NC(C)(c2cccc(-c3cc(Cl)ccc3CNC(=O)Nc3ccc(Cl)cc3)c2)C1=O` (stereo not shown) [urea, N-[[5-chloro-3′-(2-imino-1,4-dimethyl-5-oxo-4-imidazolidinyl)[1,1′-biphenyl]-2-yl]methyl]-N′-(4-chlorophenyl)-] gave a Ki of under 5000 nM. `CN1C(=N)NC(C)(c2cccc(-c3cc(Cl)ccc3CNC(=O)Nc3ccccc3)c2)C1=O` (stereo not shown) [urea, N-[[5-chloro-3′-(2-imino-1,4-dimethyl-5-oxo-4-imidazolidinyl)[1,1′-biphenyl]-2-yl]methyl]-N′-phenyl-] was tested, and the Ki was under 5000 nM.

These molecules were tested against T3, Mature human Renin (Homo sapiens, UniProt P00797) (assay: Human Mature Renin Enzyme Assay (FRET)). Conditions: 100 μM compound; percent decrease in renin induced fluorescence after 40 min at 30 degrees celsius.
T3 construct: The prodomain of the recombinant human renin-V5-6His was removed by limited proteolysis using immobilized TPCK-trypsin to give mature-human renin; V5 (C); 6His (C); made in house
T3 sequence (P00797 67-406): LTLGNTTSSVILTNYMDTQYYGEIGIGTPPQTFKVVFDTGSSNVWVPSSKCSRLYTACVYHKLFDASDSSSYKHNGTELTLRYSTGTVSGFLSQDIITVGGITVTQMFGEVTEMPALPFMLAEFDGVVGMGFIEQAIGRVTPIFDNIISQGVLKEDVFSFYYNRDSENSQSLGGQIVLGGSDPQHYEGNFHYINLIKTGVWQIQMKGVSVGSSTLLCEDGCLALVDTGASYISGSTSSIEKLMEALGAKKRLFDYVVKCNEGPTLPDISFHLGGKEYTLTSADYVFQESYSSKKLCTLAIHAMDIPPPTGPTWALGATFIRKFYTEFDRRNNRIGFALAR
Type: biochemical
Source text: Human Renin was cloned from a human kidney cDNA library and C-terminally epitope-tagged with the V5-6His sequence into pCDNA3.1. pCNDA3.1-Renin-V5-6His was stably expressed in HEK293 cells and purified to >80% using standard Ni-Affinity chromatography. The prodomain of the recombinant human renin-V5-6His was removed by limited proteolysis using immobilized TPCK-trypsin to give mature-human renin. Renin enzymatic activity was monitored using a commercially available fluorescence resonance energy transfer (FRET) peptide substrate, RS-1 (Molecular Probes, Eugene, Oreg.) in 50 mM Tris-HCl pH 8.0, 100 mM NaCl, 0.1% Brij-35 and 5% DMSO buffer for 40 mins at 30 degrees celsius in the presence or absence of different concentrations of test compounds. Mature human Renin was present at approximately 200 nM. Inhibitory activity was defined as the percent decrease in renin induced fluorescence at the end of the 40 min incubation compared to vehicle controls and samples lacking enzyme.
`CN1C(=N)N[C@](CCC2CCCCC2)(C[C@H]2CCC[C@@H](Nc3cccnc3)C2)C1=O` was tested, and the “% inhibition of renin at 100 μM” value was 68.8%. With `CCC[C@H]1CN(Cc2ccc(CN3C(=N)NC(CCC4CCCCC4)(CC4CCCCC4)C3=O)cc2)C(=O)N1` (stereo partly shown) the “% inhibition of renin at 100 μM” value was 75.3%. `CCC[C@H]1CN(Cc2ccc(CN3C(=N)N[C@](CCC4CCCCC4)(CC4CCCCC4)C3=O)cc2)C(=O)N1` was tested, and the “% inhibition of renin at 100 μM” value was 76.9%.
